Experiments:
Assay type in all cases: cell-based
STAT1 = experiment: IFN-γ-induced STAT1 pathway activation assay; conditions: read-out: STAT1 IC50
STAT3 = experiment: IL-6-induced STAT3 activation high content; conditions: for IC50: Homo sapiens, CAL-33, read-out: STAT3 IC50; for times less active (STAT3) after exchanging R-substituents of 1a and 2b: compared with 1a and 2b; for fold improvement in STAT3 potency compared to original hit 2b: vs 2b
[1] = system: pSTAT3 and STAT3 target gene Cyclin D1; experiment: Western blot analysis in IL-6-stimulated Cal33 cells; conditions: IL-6 (50 ng/mL)-stimulated Cal33 cells

## Clc1ccc(C2=Nn3c(nnc3-c3[nH]nc4c3CCC4)SC2)cc1Cl [Compound 1a]
STAT1
  IC50: > 50 µM
STAT3
  IC50: 6.8 ± 3.7 µM

## Clc1ccc(C2=Nn3c(nnc3-c3cc(-c4ccccc4)n[nH]3)SC2)cc1Cl [Compound 1b]
STAT1
  IC50: > 50 µM
STAT3
  times less active (STAT3) after exchanging R-substituents of 1a and 2b: 3–4 times

## Clc1ccc(C2=Nn3c(nnc3-c3[nH]nc4c3CCC4)SC2)cc1 [Compound 2a]
STAT1
  IC50: > 50 µM
STAT3
  times less active (STAT3) after exchanging R-substituents of 1a and 2b: 3–4 times

## Clc1ccc(C2=Nn3c(nnc3-c3cc(-c4ccccc4)[nH]n3)SC2)cc1 [Compound 2b]
STAT1
  IC50: > 50 µM
STAT3
  IC50: 9.6 ± 7.8 µM

## Clc1cccc(C2=Nn3c(nnc3-c3[nH]nc4c3CCC4)SC2)c1 [Compound 4a]
STAT1
  IC50: > 50 µM

## Clc1cccc(C2=Nn3c(nnc3-c3cc(-c4ccccc4)n[nH]3)SC2)c1 [Compound 4b]
STAT1
  IC50: 45.9 ± 8.3 µM
STAT3
  IC50: 5.6 ± 4 µM

## c1ccc(C2=Nn3c(nnc3-c3[nH]nc4c3CCC4)SC2)cc1 [Compound 5a]
STAT1
  IC50: > 50 µM
STAT3
  IC50: 21.2 ± 23.5 µM

## c1ccc(C2=Nn3c(nnc3-c3cc(-c4ccccc4)[nH]n3)SC2)cc1 [Compound 5b]
STAT1
  IC50: > 50 µM

## COc1ccc(C2=Nn3c(nnc3-c3[nH]nc4c3CCC4)SC2)cc1 [Compound 6a]
STAT1
  IC50: 40.6 ± 7.5 µM

## COc1ccc(C2=Nn3c(nnc3-c3cc(-c4ccccc4)n[nH]3)SC2)cc1 [Compound 6b]
STAT1
  IC50: > 50 µM

## c1cc(C2=Nn3c(nnc3-c3[nH]nc4c3CCC4)SC2)ccn1 [Compound 7a]
STAT1
  IC50: > 50 µM

## c1ccc(-c2cc(-c3nnc4n3N=C(c3ccncc3)CS4)[nH]n2)cc1 [Compound 7b]
STAT1
  IC50: > 50 µM

## Clc1ccc(C2=Nn3c(nnc3-c3[nH]nc4c3CCC4)SC2)s1 [Compound 8a]
STAT1
  IC50: > 50 µM

## Clc1ccc(C2=Nn3c(nnc3-c3cc(-c4ccccc4)n[nH]3)SC2)s1 [Compound 8b]
STAT1
  IC50: > 50 µM

## C1=Nn2c(nnc2-c2[nH]nc3c2CCC3)SC1 [Compound 9a]
STAT1
  IC50: > 50 µM

## C1=Nn2c(nnc2-c2cc(-c3ccccc3)n[nH]2)SC1 [Compound 9b]
STAT1
  IC50: > 50 µM

## CC1=Nn2c(nnc2-c2[nH]nc3c2CCC3)SC1 [Compound 10a]
STAT1
  IC50: > 50 µM

## CC1=Nn2c(nnc2-c2cc(-c3ccccc3)[nH]n2)SC1 [Compound 10b]
STAT1
  IC50: > 50 µM

## C1CCC(C2=Nn3c(nnc3-c3[nH]nc4c3CCC4)SC2)CC1 [Compound 11a]
STAT1
  IC50: > 50 µM

## c1ccc(-c2cc(-c3nnc4n3N=C(C3CCCCC3)CS4)[nH]n2)cc1 [Compound 11b]
STAT1
  IC50: > 50 µM

## COc1ccc(C2CSc3nnc(-c4[nH]nc5c4CCC5)n3N2)cc1 (stereo not drawn) [Compound 12]
STAT3
  activity in the STAT3 assay (in words): inactive

## COc1ccc(C2CSc3nnc(-c4cc(-c5ccccc5)n[nH]4)n3N2C(C)=O)cc1 (stereo not drawn) [Compound 13]
STAT3
  activity in the STAT3 assay (in words): inactive

## Fc1ccc(-c2cc(-c3nnc4n3N=C(c3ccc(Cl)c(Cl)c3)CS4)[nH]n2)cc1 [Compound 14]
STAT3; vs 1b
  fold improvement in STAT3 potency over unsubstituted analog 1b: ~ 4 fold

## Clc1ccc(C2=Nn3c(nnc3-c3[nH]nc4c3CCCC4)SC2)cc1Cl [Compound 16]
STAT3; vs 1a
  fold less active than cyclopentyl analog 1a: ~ 2 fold

## CC1Sc2nnc(-c3[nH]nc4c3CCC4)n2N=C1c1ccc(Cl)c(Cl)c1 (stereo not drawn) [Compound 17]
STAT1
  IC50: > 50 µM
STAT3
  IC50: 8.2 ± 2.2 µM

## COc1ccc(C2=Nn3c(nnc3-c3[nH]nc4c3CCC4)SC2C)cc1 (stereo not drawn) [Compound 18]
STAT1
  IC50: > 50 µM
STAT3
  IC50: 9.1 µM

## CC1Sc2nnc(-c3cc(-c4ccccc4)n[nH]3)n2N=C1c1ccccc1 (stereo not drawn) [Compound 19]
STAT1
  IC50: 15 µM
STAT3
  IC50: 3.4 µM
  fold improvement in STAT3 potency compared to original hit 2b: 2–3 fold
[1]
  downstream STAT3 target gene Cyclin D1 by Western blot: significant inhibition
  pSTAT3 levels by Western blot: pronounced decreases

## CC1Sc2nnc(-c3cc(-c4ccc(F)cc4)n[nH]3)n2N=C1c1ccccc1 (stereo not drawn) [Compound 20]
STAT1
  IC50: > 30 µM
STAT3
  IC50: 3.8 ± 0.8 µM
  fold improvement in STAT3 potency compared to original hit 2b: 2–3 fold

## COc1ccc(C2=Nn3c(nnc3-c3cc(-c4ccc(F)cc4)n[nH]3)SC2C)cc1 (stereo not drawn) [Compound 21]
STAT1
  IC50: > 30 µM
STAT3
  IC50: 4.2 µM
  fold improvement in STAT3 potency compared to original hit 2b: 2–3 fold

## COc1ccc(C2=Nn3c(nnc3-c3cc(-c4ccc(Cl)cc4)n[nH]3)SC2C)cc1 (stereo not drawn) [Compound 22]
[1]
  downstream STAT3 target gene Cyclin D1 by Western blot: significant inhibition
  pSTAT3 levels by Western blot: pronounced decreases

## CC(C)C1Sc2nnc(-c3[nH]nc4c3CCC4)n2N=C1c1ccc(Cl)c(Cl)c1 (stereo not drawn) [Compound 23]
STAT1
  IC50: > 50 µM
STAT3
  IC50: 4.4 µM

## COc1ccc(C2=Nn3c(nnc3-c3[nH]nc4c3CCC4)SC2C(C)C)cc1 (stereo not drawn) [Compound 24]
STAT1
  IC50: > 50 µM

## CC(C)CC1Sc2nnc(-c3[nH]nc4c3CCC4)n2N=C1c1ccc(Cl)c(Cl)c1 (stereo not drawn) [Compound 25]
STAT1
  IC50: > 50 µM
STAT3
  IC50: 4.1 µM

## COc1ccc(C2=Nn3c(nnc3-c3cc(-c4ccccc4)n[nH]3)SC2CC(C)C)cc1 (stereo not drawn) [Compound 26]
STAT1
  IC50: > 50 µM

## Clc1ccc(C2=Nn3c(nnc3-c3[nH]nc4c3CCC4)SC2Cc2ccccc2)cc1Cl (stereo not drawn) [Compound 27]
STAT1
  IC50: > 50 µM
STAT3
  IC50: 7.5 µM

## CC1(C)Sc2nnc(-c3[nH]nc4c3CCC4)n2N=C1c1ccc(Cl)c(Cl)c1 [Compound 30]
STAT1
  IC50: > 50 µM
STAT3
  IC50: 18.6 µM

From publication PMC4964800 (Bioorganic & medicinal chemistry letters, 2016)
